Reference: patent US20120128646A1, “METHODS AND COMPOSITIONS FOR THE TREATMENT OF AUTOIMMUNE DISEASE” (priority 2009, published 2012)
Entries after “also recorded” stand apart in the source; their conditions may differ. Where no end group is shown, it is not given here.

What was measured:
T cell clone BDC-2.5 = assay: IFNγ production by T cell clone in antigen assay (ELISA); assay type: cell-based, NOD mouse; settings: peptide or preparation as antigen
Text: The T cell clones are maintained in culture by periodic re-stimulation with irradiated NOD splenocytes and islet cells or β-membrane. To assay for antigen, resting responder T cells (i.e., for example, the cells at the end of the two-week restimulation period) are co-cultured for 24 hr with elicited peritoneal macrophages (PEC) as APC and either a test sample or control antigen. Control antigen will be in the form of islet cells or the whole-cell membrane fraction (i.e., for example, a β-membrane fraction). As described above, unlysed β-membrane is stored in aliquots at −80° C. for this purpose. Negative controls include responder cells alone and responders plus APC.
At the end of the culture period, supernatants are collected from the cultures and IFNγ production is measured by ELISA. Wells positive for IFNγ are indicative of T cells responding to antigen; the amount of cytokine produced is calculated from a standard curve and is directly proportional to the amount of antigen present.
Antigenicity of islet cells, cellular and biochemical fractions, peptides, or insect cells expressing IA^g7-peptide constructs, was assessed through responses of T cell clones or hybridomas made by fusing T cell clones to the TCR^− version of T cell lymphoma, BW5147. White et al., “Two better cell lines for making hybridomas expressing specific T cell receptors” J Immunol 143:1822-1825 (1989). T cell clone cultures typically contained 2×10^4 responder T cells, 2.5×10^4 NOD peritoneal exudate cells (PEC) as APC, and antigen (SEC/IEX fractions, peptides, islet cells); all assays were performed with β-Mem as a positive control. IFNγ was measured by ELISA of culture supernatants. For cultures with T cell hybridomas, antigen/MHC activation was assessed by IL-2 production measured by a bioassay using the HT-2 T cell line. Walker et al., “Antigenspecific. I region-restricted interactions in vitro between tumor cell lines and T cell hybridomas” J Immunol 128:2164-2169 (1982). Synthetic peptides were either produced in the Molecular Resource Center at National Jewish Health or obtained from CHI Scientific, Maynard, Mass.

[1] = test system: BDC-10.1 T cell hybridoma; assay: CD69 upregulation on T cell hybridoma co-cultured with insect cells infected with linked peptide I-A^g7 viruses; assay type: cell-based, mouse; settings: hybridomas 3 × 10^5/mL, 3 hrs co-culture with infected insect cells 1 × 10^5/mL
Description: (§1) FIG. 13F: The p3 glycine of pS3 was mutated to other amino acids. The effect of the mutations on early activation of the three BDC hybridomas was assessed by CD69 induction. The results are shown as the percent of cells expressing CD69 relative to those activated with the unmutated pS3 peptide. […] The sequences of the pS3 and ChgA peptide are also shown, highlighting the amino acids at the p3 position.
(§2) A mutational analysis was performed of 3 L mimotope at positions 2 and 3 followed by their respective ability to stimulate BDC-2.5, BDC-10.1 and BDC-5.10.3 hybridomas with 3 L mimotope substituted peptides. See, Table 3.

BDC-2.5 T cell hybridoma = assay: as above; assay type: cell-based, mouse; settings: hybridomas 3 × 10^5/mL, 3 hrs co-culture with infected insect cells 1 × 10^5/mL
Description: as §1, §2

[2] = test system: BDC-5.10.3 T cell hybridoma; assay: as above; assay type: cell-based, mouse; settings: hybridomas 3 × 10^5/mL, 3 hrs co-culture with infected insect cells 1 × 10^5/mL
Description: as §1, §2

| Substance | Stimulation of T cell clone BDC-2.5 (IFNγ response), result in words (T cell clone BDC-2.5) | Stimulation BDC-10.1 (upregulation of CD69) [1] | Stimulation BDC-2.5 (upregulation of CD69) (BDC-2.5 T cell hybridoma) | Stimulation BDC-5.1.3 (upregulation of CD69) [2] |
| --- | --- | --- | --- | --- |
| Enz: WE14 after transglutaminase modification (WSRMDQLAKELTAE; also: transglutaminase modification, site not given here) | highly antigenic | – | – | – |
| QWEDKRWSRMDQA | unable to stimulate | – | – | – |
| SRFGLWVRME | – | + (A positive response (+) indicates >40% of the hybridoma population stained above a background staining of 1% for unstimulated or of the same T cell hybridoma) | + (A positive response (+) indicates >40% of the hybridoma population stained above a background staining of 1% for unstimulated or of the same T cell hybridoma) | – |
| SRLALWVRME | – | + (A positive response (+) indicates >40% of the hybridoma population stained above a background staining of 1% for unstimulated or of the same T cell hybridoma) | + (A positive response (+) indicates >40% of the hybridoma population stained above a background staining of 1% for unstimulated or of the same T cell hybridoma) | + (A positive response (+) indicates >40% of the hybridoma population stained above a background staining of 1% for unstimulated or of the same T cell hybridoma) |
| SRLCLWVRME | – | – | + (A positive response (+) indicates >40% of the hybridoma population stained above a background staining of 1% for unstimulated or of the same T cell hybridoma) | + (A positive response (+) indicates >40% of the hybridoma population stained above a background staining of 1% for unstimulated or of the same T cell hybridoma) |
| SRLGLWVRME | – | + (A positive response (+) indicates >40% of the hybridoma population stained above a background staining of 1% for unstimulated or of the same T cell hybridoma) | + (A positive response (+) indicates >40% of the hybridoma population stained above a background staining of 1% for unstimulated or of the same T cell hybridoma) | + (A positive response (+) indicates >40% of the hybridoma population stained above a background staining of 1% for unstimulated or of the same T cell hybridoma) |
| SRLHLWVRME | – | + (A positive response (+) indicates >40% of the hybridoma population stained above a background staining of 1% for unstimulated or of the same T cell hybridoma) | – | + (A positive response (+) indicates >40% of the hybridoma population stained above a background staining of 1% for unstimulated or of the same T cell hybridoma) |
| SRLMLWVRME | – | + (A positive response (+) indicates >40% of the hybridoma population stained above a background staining of 1% for unstimulated or of the same T cell hybridoma) | – | + (A positive response (+) indicates >40% of the hybridoma population stained above a background staining of 1% for unstimulated or of the same T cell hybridoma) |
| SRLVLWVRME | – | + (A positive response (+) indicates >40% of the hybridoma population stained above a background staining of 1% for unstimulated or of the same T cell hybridoma) | – | + (A positive response (+) indicates >40% of the hybridoma population stained above a background staining of 1% for unstimulated or of the same T cell hybridoma) |
| SRLYLWVRME | – | + (A positive response (+) indicates >40% of the hybridoma population stained above a background staining of 1% for unstimulated or of the same T cell hybridoma) | – | + (A positive response (+) indicates >40% of the hybridoma population stained above a background staining of 1% for unstimulated or of the same T cell hybridoma) |
| WA8: sequential C-terminal truncation of WE14 (WSRMDQLA) | decreasing stimulatory activity | – | – | – |
| WSRMD [WD5, shortest C-terminal truncation of WE14, motif only] | decreasing stimulatory activity; also recorded: lacked any activity at all | – | – | – |
